Tested on: 997726-040-R-J2-PDC tumor spheroids, viability
Experiment: Anticancer human tumor 997726-040-R-J2-PDC patient-derived squamous cell lung carcinoma cell line growth inhibition [PI3K]
Settings: spheroids with HUVEC and MSC; for IC50: curve of first compound; for viability, T/C: stronger effect = lower value
Method in brief: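 High-throughput combination screen: PI3K inhibitors crossed with targeted small molecules on complex spheroids of tumor cells, HUVEC and MSCs at 37 degrees C, 5% CO2. Top concentration was at or near clinical Cmax (otherwise 10 microM), with half-log decrements.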
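Note: spheroids exposed to compounds for seven days before readout.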

**Q.** For Cn1cnc2c(F)c(Nc3ccc(Br)cc3Cl)c(C(=O)NOCCO)cc21 + Cc1nc(NC(=O)N2CCCC2C(N)=O)sc1-c1ccnc(C(C)(C)C(F)(F)F)c1, which IC50 (second compound 0.0316 µM) is on record?
**A.** 129 nM

**Q.** And the IC50 (second compound 0.1 µM)?
**A.** 66.2 nM

**Q.** And the IC50 (second compound 0.316 µM)?
**A.** < 9.49 nM

**Q.** What about the IC50 (second compound 1 µM) of the same compound?
**A.** < 9.49 nM

**Q.** What about the IC50 (second compound 3.16 µM) of the same compound?
**A.** < 9.49 nM

**Q.** And the IC50 (second compound 10 µM)?
**A.** < 9.49 nM

**Q.** And the viability, T/C (second compound 0.0316 µM, first compound 0.00949 µM)?
**A.** 74.8%

**Q.** What about the viability, T/C (second compound 0.0316 µM, first compound 0.03 µM) of the same compound?
**A.** 58.5%

**Q.** What about the viability, T/C (second compound 0.0316 µM, first compound 0.0949 µM) of the same compound?
**A.** 53.5%

**Q.** And the viability, T/C (second compound 0.0316 µM, first compound 0.3 µM)?
**A.** 41.7%

**Q.** And the viability, T/C (second compound 0.0316 µM, first compound 0.949 µM)?
**A.** 45.9%

**Q.** What about the viability, T/C (second compound 0.0316 µM, first compound 3 µM) of the same compound?
**A.** 34.1%

**Q.** What about the viability, T/C (second compound 0.1 µM, first compound 0.00949 µM) of the same compound?
**A.** 67.6%

**Q.** And the viability, T/C (second compound 0.1 µM, first compound 0.03 µM)?
**A.** 56.1%

**Q.** And the viability, T/C (second compound 0.1 µM, first compound 0.0949 µM)?
**A.** 44.9%

**Q.** And the viability, T/C (second compound 0.1 µM, first compound 0.3 µM)?
**A.** 40.5%

**Q.** What about the viability, T/C (second compound 0.1 µM, first compound 0.949 µM) of the same compound?
**A.** 38.7%

**Q.** What about the viability, T/C (second compound 0.1 µM, first compound 3 µM) of the same compound?
**A.** 28.5%

**Q.** What about the viability, T/C (second compound 0.316 µM, first compound 0.00949 µM) of the same compound?
**A.** 51.1%

**Q.** And the viability, T/C (second compound 0.316 µM, first compound 0.03 µM)?
**A.** 40.6%

**Q.** And the viability, T/C (second compound 0.316 µM, first compound 0.0949 µM)?
**A.** 35.7%

**Q.** And the viability, T/C (second compound 0.316 µM, first compound 0.3 µM)?
**A.** 34.3%

**Q.** And the viability, T/C (second compound 0.316 µM, first compound 0.949 µM)?
**A.** 28.4%

**Q.** And the viability, T/C (second compound 0.316 µM, first compound 3 µM)?
**A.** 22.2%

**Q.** And the viability, T/C (second compound 1 µM, first compound 0.00949 µM)?
**A.** 36.7%

**Q.** What about the viability, T/C (second compound 1 µM, first compound 0.03 µM) of the same compound?
**A.** 32.6%

**Q.** What about the viability, T/C (second compound 1 µM, first compound 0.0949 µM) of the same compound?
**A.** 29.4%

**Q.** What about the viability, T/C (second compound 1 µM, first compound 0.3 µM) of the same compound?
**A.** 25.3%

**Q.** What about the viability, T/C (second compound 1 µM, first compound 0.949 µM) of the same compound?
**A.** 22.7%

**Q.** And the viability, T/C (second compound 1 µM, first compound 3 µM)?
**A.** 21.2%

**Q.** And the viability, T/C (second compound 3.16 µM, first compound 0.00949 µM)?
**A.** 24.8%

**Q.** And the viability, T/C (second compound 3.16 µM, first compound 0.03 µM)?
**A.** 21.2%

**Q.** What about the viability, T/C (second compound 3.16 µM, first compound 0.0949 µM) of the same compound?
**A.** 22.2%

**Q.** And the viability, T/C (second compound 3.16 µM, first compound 0.3 µM)?
**A.** 20.9%

**Q.** What about the viability, T/C (second compound 3.16 µM, first compound 0.949 µM) of the same compound?
**A.** 20.7%

**Q.** And the viability, T/C (second compound 3.16 µM, first compound 3 µM)?
**A.** 14.3%

**Q.** And the viability, T/C (second compound 10 µM, first compound 0.00949 µM)?
**A.** 17.8%

**Q.** And the viability, T/C (second compound 10 µM, first compound 0.03 µM)?
**A.** 17.2%

**Q.** What about the viability, T/C (second compound 10 µM, first compound 0.0949 µM) of the same compound?
**A.** 15.5%

**Q.** And the viability, T/C (second compound 10 µM, first compound 0.3 µM)?
**A.** 15.3%

**Q.** What about the viability, T/C (second compound 10 µM, first compound 0.949 µM) of the same compound?
**A.** 12.2%

**Q.** What about the viability, T/C (second compound 10 µM, first compound 3 µM) of the same compound?
**A.** 7.26%

**Q.** For CC1(C)CCC(Nc2ncc(C(F)(F)F)c(-c3c[nH]c4c(P(C)(C)=O)c(C#N)ccc34)n2)CN1 (centres undefined) + CC(Nc1ccc2c(c1)OCCn1cc(N3C(=O)OCC3C(F)F)nc1-2)C(N)=O, which IC50 (second compound 0.00316 µM) is on record?
**A.** < 31.6 nM

**Q.** What about the IC50 (second compound 0.01 µM) of the same compound?
**A.** < 31.6 nM

**Q.** What about the IC50 (second compound 0.0316 µM) of the same compound?
**A.** < 31.6 nM

**Q.** And the IC50 (second compound 0.1 µM)?
**A.** < 31.6 nM

**Q.** And the IC50 (second compound 0.316 µM)?
**A.** < 31.6 nM

**Q.** And the IC50 (second compound 1 µM)?
**A.** < 31.6 nM

**Q.** What about the viability, T/C (second compound 0.00316 µM, first compound 0.0316 µM) of the same compound?
**A.** 28.7%

**Q.** And the viability, T/C (second compound 0.00316 µM, first compound 0.1 µM)?
**A.** 30%

**Q.** What about the viability, T/C (second compound 0.00316 µM, first compound 0.316 µM) of the same compound?
**A.** 33.1%

**Q.** And the viability, T/C (second compound 0.00316 µM, first compound 1 µM)?
**A.** 33.6%

**Q.** And the viability, T/C (second compound 0.00316 µM, first compound 3.16 µM)?
**A.** 32.4%

**Q.** And the viability, T/C (second compound 0.00316 µM, first compound 10 µM)?
**A.** 5.79%

**Q.** What about the viability, T/C (second compound 0.01 µM, first compound 0.0316 µM) of the same compound?
**A.** 32.1%

**Q.** And the viability, T/C (second compound 0.01 µM, first compound 0.1 µM)?
**A.** 30.8%

**Q.** What about the viability, T/C (second compound 0.01 µM, first compound 0.316 µM) of the same compound?
**A.** 28.8%

**Q.** What about the viability, T/C (second compound 0.01 µM, first compound 1 µM) of the same compound?
**A.** 31%

**Q.** What about the viability, T/C (second compound 0.01 µM, first compound 3.16 µM) of the same compound?
**A.** 28.3%

**Q.** And the viability, T/C (second compound 0.01 µM, first compound 10 µM)?
**A.** 4.9%

**Q.** And the viability, T/C (second compound 0.0316 µM, first compound 0.0316 µM)?
**A.** 25.6%

**Q.** What about the viability, T/C (second compound 0.0316 µM, first compound 0.1 µM) of the same compound?
**A.** 22.9%

**Q.** What about the viability, T/C (second compound 0.0316 µM, first compound 0.316 µM) of the same compound?
**A.** 23.5%

**Q.** What about the viability, T/C (second compound 0.0316 µM, first compound 1 µM) of the same compound?
**A.** 26.1%

**Q.** What about the viability, T/C (second compound 0.0316 µM, first compound 3.16 µM) of the same compound?
**A.** 25.2%

**Q.** And the viability, T/C (second compound 0.0316 µM, first compound 10 µM)?
**A.** 4.37%

**Q.** What about the viability, T/C (second compound 0.1 µM, first compound 0.0316 µM) of the same compound?
**A.** 14.3%

**Q.** What about the viability, T/C (second compound 0.1 µM, first compound 0.1 µM) of the same compound?
**A.** 18.4%

**Q.** What about the viability, T/C (second compound 0.1 µM, first compound 0.316 µM) of the same compound?
**A.** 17.3%

**Q.** And the viability, T/C (second compound 0.1 µM, first compound 1 µM)?
**A.** 21.5%

**Q.** And the viability, T/C (second compound 0.1 µM, first compound 3.16 µM)?
**A.** 19.6%

**Q.** What about the viability, T/C (second compound 0.1 µM, first compound 10 µM) of the same compound?
**A.** 3.37%

**Q.** What about the viability, T/C (second compound 0.316 µM, first compound 0.0316 µM) of the same compound?
**A.** 14.6%

**Q.** And the viability, T/C (second compound 0.316 µM, first compound 0.1 µM)?
**A.** 12.9%

**Q.** What about the viability, T/C (second compound 0.316 µM, first compound 0.316 µM) of the same compound?
**A.** 14.1%

**Q.** And the viability, T/C (second compound 0.316 µM, first compound 1 µM)?
**A.** 13.4%

**Q.** What about the viability, T/C (second compound 0.316 µM, first compound 3.16 µM) of the same compound?
**A.** 13%

**Q.** What about the viability, T/C (second compound 0.316 µM, first compound 10 µM) of the same compound?
**A.** 1.45%

**Q.** What about the viability, T/C (second compound 1 µM, first compound 0.0316 µM) of the same compound?
**A.** 11.4%

**Q.** What about the viability, T/C (second compound 1 µM, first compound 0.1 µM) of the same compound?
**A.** 9.53%

**Q.** What about the viability, T/C (second compound 1 µM, first compound 0.316 µM) of the same compound?
**A.** 10.6%

**Q.** What about the viability, T/C (second compound 1 µM, first compound 1 µM) of the same compound?
**A.** 11%

**Q.** And the viability, T/C (second compound 1 µM, first compound 3.16 µM)?
**A.** 12.6%

**Q.** And the viability, T/C (second compound 1 µM, first compound 10 µM)?
**A.** 1.25%
